Test results: ChEMBL document CHEMBL1201862, “PubChem BioAssay data set” (2004)
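Step 1: Grow cells in 96-well plates. Step 2: Expose to compound for 48 hours at 5 concentrations. Step 3: Interpolate endpoints linearly; if unreached, use highest concentration. GI50 = concentration required for 50% inhibition of growth.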 Activity calls are given as the source filed them. No stated cut-off is given here; in the data, active = GI50 up to about 1.1 µM and inactive = higher.

Tests used:
Experiment in all cases: NCI anticancer screen, dose series, 48 h
CCRF-CEM = system: CCRF-CEM
OVCAR-5 = system: OVCAR-5
UACC-62 = system: UACC-62
SK-MEL-2 = system: SK-MEL-2
HOP-62 = system: HOP-62
MDA-MB-435 = system: MDA-MB-435
U-251 = system: U-251
UO-31 = system: UO-31
NCI-H226 = system: NCI-H226
BT-549 = system: BT-549
SNB-75 = system: SNB-75
ACHN = system: ACHN
SK-MEL-5 = system: SK-MEL-5
SK-OV-3 = system: SK-OV-3
HCC 2998 = system: HCC 2998
SF-539 = system: SF-539
NCI-H460 = system: NCI-H460
HCT-15 = system: HCT-15
OVCAR-3 = system: OVCAR-3

Compound	GI50 (CCRF-CEM)	GI50 (OVCAR-5)	GI50 (UACC-62)	GI50 (SK-MEL-2)	GI50 (HOP-62)	GI50 (MDA-MB-435)	GI50 (U-251)	GI50 (UO-31)	GI50 (NCI-H226)	GI50 (BT-549)	GI50 (SNB-75)	GI50 (ACHN)	GI50 (SK-MEL-5)	GI50 (SK-OV-3)	GI50 (HCC 2998)	GI50 (SF-539)	GI50 (NCI-H460)	GI50 (HCT-15)	GI50 (OVCAR-3)
COC(=O)C1=C(C(=O)OC)SC(=C2SC3=C(SC(=C4SCCS4)S3)S2)S1	> 100 µM (inactive)	> 100 µM (inactive)	> 100 µM (inactive)	> 100 µM (inactive)	> 100 µM (inactive)	> 100 µM (inactive)	93.1 µM (inactive)	> 100 µM (inactive)	> 100 µM (inactive)	> 100 µM (inactive)	0.0302 µM (active)	> 100 µM (inactive)	> 100 µM (inactive)	> 100 µM (inactive)					
COC(=O)CC1C2CC3C(C2=O)C13 (centres undefined)	> 100 µM (inactive)	> 100 µM (inactive)	> 100 µM (inactive)	> 100 µM (inactive)	> 100 µM (inactive)	> 100 µM (inactive)	> 100 µM (inactive)	> 100 µM (inactive)	> 100 µM (inactive)		58.1 µM (inactive)	> 100 µM (inactive)	> 100 µM (inactive)	> 100 µM (inactive)	> 100 µM (inactive)	> 100 µM (inactive)	> 100 µM (inactive)	> 100 µM	> 100 µM (inactive)
CNC(=O)NS(=O)(=O)c1ccc(C)cc1.NS(=O)O	> 100 µM (inactive)	> 100 µM (inactive)	> 100 µM (inactive)	> 100 µM (inactive)	> 100 µM (inactive)		> 100 µM (inactive)	> 100 µM (inactive)		> 100 µM (inactive)	> 100 µM (inactive)	> 100 µM (inactive)	> 100 µM (inactive)	> 100 µM (inactive)		> 100 µM (inactive)	> 100 µM (inactive)	> 100 µM	
CCCCOCn1c(=O)[nH]c(=O)c2ccccc21	> 100 µM (inactive)	> 100 µM (inactive)	> 100 µM (inactive)	91.8 µM (inactive)		> 100 µM (inactive)	> 100 µM (inactive)	13.1 µM (inactive)	49.5 µM (inactive)		13.3 µM (inactive)	32.9 µM (inactive)	54.1 µM (inactive)	> 100 µM (inactive)		> 100 µM (inactive)	88.1 µM (inactive)	> 100 µM	> 100 µM (inactive)
COc1cc(Br)cc2cc(-c3cn4c(n3)sc3ccccc34)c(=O)oc12	20.4 µM (inactive)	39 µM (inactive)	22.6 µM (inactive)	22.3 µM (inactive)	22.7 µM (inactive)	24.4 µM (inactive)	25.2 µM (inactive)	18.7 µM (inactive)		24.3 µM (inactive)		32 µM (inactive)	28.4 µM (inactive)	30.1 µM (inactive)		30.9 µM (inactive)	33.7 µM (inactive)	23.6 µM	20 µM (inactive)
Cc1ccccc1/N=N/c1c(O)ccc2ccccc12	> 100 µM (inactive)	> 100 µM (inactive)	> 100 µM (inactive)	> 100 µM (inactive)	48.1 µM (inactive)	> 100 µM (inactive)	70.1 µM (inactive)	> 100 µM (inactive)	> 100 µM (inactive)	> 100 µM (inactive)	> 100 µM (inactive)	> 100 µM (inactive)	> 100 µM (inactive)	> 100 µM (inactive)				> 100 µM	> 100 µM (inactive)
NNC(=O)c1cc(=O)[nH][nH]1	> 100 µM (inactive)	> 100 µM (inactive)	> 100 µM (inactive)	> 100 µM (inactive)		> 100 µM (inactive)	> 100 µM (inactive)	> 100 µM (inactive)	> 100 µM (inactive)	> 100 µM (inactive)	> 100 µM (inactive)	> 100 µM (inactive)	> 100 µM (inactive)	> 100 µM (inactive)		> 100 µM (inactive)	> 100 µM (inactive)	> 100 µM	
O=C(N/N=C/c1ccco1)c1cc(I)cc(I)c1O	> 50 µM (inactive)	7.85 µM (inactive)	16.6 µM (inactive)	5.22 µM (inactive)		16.9 µM (inactive)		24 µM (inactive)	11.4 µM (inactive)	> 50 µM (inactive)	37.2 µM (inactive)	22 µM (inactive)	12.4 µM (inactive)			11.8 µM (inactive)		19.7 µM	
COc1ccc2c(C)cc(=O)oc2c1OC	> 100 µM (inactive)	> 100 µM (inactive)	> 100 µM (inactive)	> 100 µM (inactive)	> 100 µM (inactive)	> 100 µM (inactive)	> 100 µM (inactive)	> 100 µM (inactive)	> 100 µM (inactive)		> 100 µM (inactive)	> 100 µM (inactive)	> 100 µM (inactive)	> 100 µM (inactive)				> 100 µM	> 100 µM (inactive)
